These results are taken from patent US20190047966A1, “NOVEL COMPOUND AND PHARMACOLOGICALLY ACCEPTABLE SALT THEREOF” (MEIJI SEIKA PHARMA CO., LTD., priority 2016, published 2019).

Experiment [1] addresses T1, human histamine H4 receptor (Homo sapiens, UniProt Q9H3N8).
T1 construct: purchased PerkinElmer Inc; host or cells: CHO-K1
The experiment in a line: Evaluation of Human H4 Receptor Affinity ([3H]histamine binding). The conditions noted are these: inhibition constant Ki, CHO-K1 membrane preparation, read-out: Evaluation of H4 Receptor Affinity. On the procedure: Test Example 2: Evaluation of Human H4 Receptor Affinity
Membrane preparation from recombinant CHO-K1 cell expressing the human histamine H4 receptor (PerkinElmer Inc.), radiolabeled ligand 8.2 nM [^3H]histamine (PerkinElmer Inc.), and compounds dissolved in DMSO were reacted at 25° C. for 90 minutes in a buffering solution containing 50 mM tris-hydrochloric acid, pH 7.4, and 1.25 mM EDTA on a 96 well plate, followed by filtration using a GF/B filter (PerkinElmer Inc.) pretreated with 0.3% polyethylenimine. The residue was washed four times with a buffering solution of 50 mM tris-hydrochloric acid, pH 7.4. Thereafter, a scintillation cocktail (MicroScint 20: PerkinElmer Inc.) was added to the GF/B filter, and the radioactivity of each well was measured using a liquid scintillation counter for 96-well (TopCount: PerkinElmer Inc.). The non-specific binding was evaluated in the presence of 1.0 μM histamine. The inhibition constant Ki was calculated from the 50% inhibitory concentration (IC50 value) obtained in each test and the Kd value (5.7 nM) unique to this assay system, according to the Cheng-Prusoff equation.

The target in experiment [2] is human histamine H1 receptor (Homo sapiens, UniProt P35367). The experiment in a line: Evaluation of Human H1 Receptor Affinity ([3H]pyrilamine binding). Also noted: purchased PerkinElmer Inc; host or cells: CHO-K1. The conditions noted are these: inhibition constant Ki, CHO-K1 membrane preparation. As to the method: Test Example 1: Evaluation of Human H1 Receptor Affinity
Sequence of human histamine H1 receptor (P35367 whole entry): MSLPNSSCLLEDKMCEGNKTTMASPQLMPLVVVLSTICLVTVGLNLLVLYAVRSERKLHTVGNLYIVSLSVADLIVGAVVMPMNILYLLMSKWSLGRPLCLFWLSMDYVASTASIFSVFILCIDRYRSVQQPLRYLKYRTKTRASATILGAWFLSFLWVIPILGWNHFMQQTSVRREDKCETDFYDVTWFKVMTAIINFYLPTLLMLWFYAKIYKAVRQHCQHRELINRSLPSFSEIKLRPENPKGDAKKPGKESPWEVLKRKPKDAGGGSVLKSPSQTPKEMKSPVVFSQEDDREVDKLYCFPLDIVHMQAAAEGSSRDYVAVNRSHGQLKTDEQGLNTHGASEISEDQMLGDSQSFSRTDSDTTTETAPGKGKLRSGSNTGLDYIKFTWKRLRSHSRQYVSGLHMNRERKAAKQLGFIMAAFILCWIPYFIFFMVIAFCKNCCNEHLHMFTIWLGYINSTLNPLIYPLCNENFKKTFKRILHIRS
Membrane preparation from recombinant CHO-K1 cell expressing the human histamine H1 receptor (PerkinElmer Inc.), radiolabeled ligand 1.2 nM [^3H]pyrilamine (PerkinElmer Inc.), and test compounds dissolved in DMSO were reacted at 25° C. for 3 hours in a buffering solution containing 50 mM tris-hydrochloric acid, pH 7.4, and 5 mM magnesium chloride on a 96 well plate, followed by filtration using a GF/B filter (PerkinElmer Inc.) pretreated with 0.3% polyethylenimine. The residue was washed four times with a buffering solution of 50 mM tris-hydrochloric acid, pH 7.4. Thereafter, a scintillation cocktail (MicroScint 20: PerkinElmer Inc.) was added to the GF/B filter, and the radioactivity of each well was measured using a liquid scintillation counter for 96-well (TopCount: PerkinElmer Inc.). The non-specific binding was evaluated in the presence of 1.0 μM pyrilamine. The inhibition constant Ki was calculated from the 50% inhibitory concentration (IC50 value) obtained in each test and the Kd value (1.1 nM) unique to this assay system, according to the Cheng-Prusoff equation.

Where a name gives a salt, the structure may show the parent alone. Where only a bound is given, the exact number is not on record here.

T1 sequence (Q9H3N8 whole entry): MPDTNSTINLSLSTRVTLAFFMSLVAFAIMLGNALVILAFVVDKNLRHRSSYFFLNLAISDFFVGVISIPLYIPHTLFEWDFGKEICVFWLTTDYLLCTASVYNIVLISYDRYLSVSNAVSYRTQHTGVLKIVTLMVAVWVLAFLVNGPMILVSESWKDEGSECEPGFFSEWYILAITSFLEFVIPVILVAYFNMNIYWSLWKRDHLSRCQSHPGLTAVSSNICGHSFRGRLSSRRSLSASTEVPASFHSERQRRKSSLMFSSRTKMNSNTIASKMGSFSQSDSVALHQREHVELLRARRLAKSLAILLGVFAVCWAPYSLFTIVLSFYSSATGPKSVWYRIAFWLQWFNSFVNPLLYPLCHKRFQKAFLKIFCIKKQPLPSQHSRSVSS

`Nc1nc2c(c(N3CCN(CCOC4CC5C(C4)C5C(=O)O)CC3)n1)CCc1cc(OCc3ccc(OC(F)(F)F)cc3)ccc1-2` (mixture of isomers) [Example 35, 3-(2-(4-(2-amino-8-((4-(trifluoromethoxy)benzyl)oxy)-5,6-dihydrobenzo[h]quinazolin-4-yl)piperazin-1-yl)ethoxy)bicyclo[3.1.0]hexane-6-carboxylic acid]: the Ki in experiment [1] and in experiment [2] was less than 100 nM in each case.

Turning to `COC(=O)[C@@H]1CC[C@H](COCCN2CCN(c3nc(N)nc4c3CCc3cc(OCc5ccc(Cl)cc5)ccc3-4)CC2)C1` (relative stereo) [153(a), methyl cis-3-((2-(4-(2-amino-8-((4-chlorobenzyl)oxy)-5,6-dihydrobenzo[h]quinazolin-4-yl)piperazin-1-yl)ethoxy)methyl)cyclopentane-l-carboxylate], the Ki in experiment [1] and in experiment [2] was less than 100 nM in each case.

Consider `Nc1nc2c(c(N3CCN(CCOC[C@H]4CC[C@@H](C(=O)O)C4)CC3)n1)CCc1cc(OCc3ccc(Cl)cc3)ccc1-2` (relative stereo) [153(b), cis-3-((2-(4-(2-amino-8-((4-chlorobenzyl)oxy)-5,6-dihydrobenzo[h]quinazolin-4-yl)piperazin-1-yl)ethoxy)methyl)cyclopentane-l-carboxylic acid], for which the Ki in experiment [1] and in experiment [2] was less than 100 nM each time.

Take `Nc1nc2c(c(N3CCN(CCOC[C@H]4CC[C@@H](C(=O)O)C4)CC3)n1)CCc1cc(OCc3ccc(OC(F)(F)F)cc3)ccc1-2` (relative stereo) [Example 155]: the Ki in experiment [1] and in experiment [2] was less than 100 nM in each case.

Turning to `Nc1nc2c(c(N3CCN(CCOC[C@@H]4CC[C@H](C(=O)O)O4)CC3)n1)CCc1cc(OCc3ccc(Cl)cc3)ccc1-2` (relative stereo) [Example 171, cis-5-((2-(4-(2-amino-8-((4-chlorobenzyl)oxy)-5,6-dihydrobenzo[h]quinazolin-4-yl)piperazin-1-yl)ethoxy)methyl)tetrahydrofuran-2-carboxylic acid], the values for the Ki in experiment [1] and in experiment [2] were 100 to 500 nM and less than 100 nM, respectively.

Regarding `Nc1nc2c(c(N3CCN(CCOC[C@H]4C[C@@H](C(=O)O)O4)CC3)n1)CCc1cc(OCc3ccc(OC(F)(F)F)cc3)ccc1-2` (relative stereo) [Example 176], the Ki in experiment [1] was 100 to 500 nM; in experiment [2] it was less than 100 nM.

Turning to `Nc1nc2c(c(N3CCN(CCOC[C@H]4C[C@H](C(=O)O)O4)CC3)n1)CCc1cc(OCc3ccc(OC(F)(F)F)cc3)ccc1-2` (relative stereo) [Example 177, trans-4-((2-(4-(2-amino-8-((4-(trifluoromethoxy)benzyl)oxy)-5,6-dihydrobenzo[h]quinazolin-4-yl)piperazin-1-yl)ethoxy)methyl)oxetane-2-carboxylic acid], the results for the Ki in experiment [1] and in experiment [2] were 100 to 500 nM and less than 100 nM, respectively.

Regarding `Nc1nc2c(c(N3CCN(CCOC[C@@H]4CCC[C@H](C(=O)O)C4)CC3)n1)CCc1cc(OCc3ccc(OC(F)(F)F)cc3)ccc1-2` (relative stereo) [Example 186, cis-3-((2-(4-(2-amino-8-((4-(trifluoromethoxy)benzyl)oxy)-5,6-dihydrobenzo[h]quinazolin-4-yl)piperazin-1-yl)ethoxy)methyl)cyclohexane-1-carboxylic acid dihydrochloride], the Ki in experiment [1] and in experiment [2] was less than 100 nM throughout.

For `CC(Oc1ccc2c(c1)CCc1c-2nc(N)nc1N1CCN(CCO[C@H]2C[C@@H](C(=O)O)C2)CC1)c1ccc(OC(F)(F)F)cc1` (relative stereo) [Example 209, cis-3-(2-(4-(2-amino-8-(1-(4-(trifluoromethoxy)phenyl)ethoxy)-5,6-dihydrobenzo[h]quinazolin-4-yl)piperazin-1-yl)ethoxy)cyclobutane-1-carboxylic acid], the Ki in experiment [1] and in experiment [2] was less than 100 nM throughout.
